# Patent US20100143440A1, “UL97 INHIBITORS FOR TREATMENT OF PROLIFERATIVE DISORDERS” (The UAB Research Foundation, priority 2007, published 2010)
# Where two headings read alike, the source gives them in different places.
# What was measured:
# HHV-6 = conditions: Williams-Aziz et al. 2005; cited from earlier work
# [1] = biological target: T1, HHV-6B U69 protein kinase (Human herpesvirus 6B, UniProt P52446); assay: Surrogate assay: U69 kinase dependent inhibition of pp65-GFP nuclear aggregation; format: cell-based; conditions: 15 μM MBV, FIG. 8; listed as MBV
# T1 construct: expressed in transfected cells
# Excerpt: This assay is similar to that reported previously for UL97 (Prichard, M. N., et al., 2005. Human cytomegalovirus UL97 Kinase is required for the normal intranuclear distribution of pp65 and virion morphogenesis. J Virol 79:15494-502). […] Inhibition of aggregation was kinase dependent since the U69B K219M mutation, which eliminates an essential lysine, is incapable of inhibiting aggregation.
# hyperphosphorylated Rb = assay: Western blot of Rb and p53 in HCMV infected HFF cells; format: cell-based, human
# Protocol: Polyacrylamide gels and western blotting. HFF cells were infected at a multiplicity of infection of 2 PFU/cell and at 24 and 72 hours following infection they were disrupted in 2× Lamelli buffer (Sigma-Aldrich, St. Louis, Mo.) and separated on 10%, 7.5%, or 5% polyacrylamide gels depending on the size of the protein to be resolved (BioRad, Hercules, Calif.). Separated proteins were transferred to PVDF membranes (Roche Applied Science, Indianapolis, Ind.) in a buffer containing 28 mM Tris, 39 mM glycine, 0.0375% SDS and 20% methanol in a semi dry transfer cell (BioRad, Hercules, Calif.). Membranes were blocked in 1% blocking buffer (Roche Applied Science, Indianapolis, Ind.), incubated with primary antibodies overnight at 4° C. and washed extensively with PBS supplemented with 0.02% tween 20. A secondary antibody conjugated to alkaline phosphatase (Southern Biotechnology Associates, Birmingham, Ala.) and CDP* (Roche Applied Science, Indianapolis, Ind.) were used to detect the bound primary antibody. Monoclonal antibodies used in these studies were directed against PML (H-238) (Santa Cruz Biotechnology, Santa Cruz, Calif.), DAXX (Upstate Cell Signaling Solutions, Tamecula, Calif.), p53, retinoblastoma, β-tubulin, CREB binding protein (CBP) (Chemicon International, Tamecula, Calif.), and both V5 and Xpress (Invitrogen, Carlsbad, Calif.).
# UL97 kinase activity is required for the hyperphosphorylation of Rb. […] Proteins in this complex were examined by Western blots using samples derived from HFF cells that were uninfected, infected with AD169 a recombinant virus (RCΔA97) containing a large deletion in UL97 at a multiplicity of infection of 3 PFU/cell. Some of the infections were conducted in the presence of MBV to confirm that the observed changes were due to a deficiency of its kinase activity. […] In cells infected with the wt virus, increases in levels of p53 were observed (FIG. 4 lanes 9-12), but this increase was unaffected by the deletion of the UL97 open reading frame or treatment with maribavir. Also consistent with this previous report was an increase of hyperphosphorylated Rb at both 24 and 72 hours following infection (FIG. 4, lanes 3, 9). […] A previous report has shown that pp71 directs the proteasome dependent degradation of hypophosphorylated Rb, however observations presented here are distinct in that the hyperphosphorylation and stabilization of this form of Rb is inefficient in the absence UL97 kinase activity.
# UL97 kinase = biological target: T2, UL97 kinase (Human cytomegalovirus, UniProt P16788); assay: UL97 kinase inhibition of pp71 aggregation in cotransfected COS7 cells; format: cell-based, HCMV
# T2 construct: expressed in transfected cells; host or cells: COS7 cells (transient co-transfection)
# pUL97 = biological target: T3, pUL97 (Human cytomegalovirus, UniProt P16788); assay: Number of PML bodies in COS7 cells expressing pUL97; format: cell-based, HCMV; conditions: FIG. 3F
# T3 construct: expressed in transfected cells; host or cells: COS7 cells (transient co-transfection)
# Protocol: Indirect immunofluorescence microscopy. Cells expressing proteins from transfected plasmids were visualized by methods published previously (Prichard et al., J. Virol. 79:15494-502 (2005)). Briefly, monolayers of HFF cells were grown on 12 mm diameter coverslips in 24-well plates. Transfected cells were fixed for 15 minutes with freshly prepared 2% formaldehyde in phosphate buffered saline (PBS), washed two times with PBS, and membranes were permeabilized with 0.2% Triton X-100 in PBS for 15 minutes. Monoclonal antibody to the V5 epitope tag was purchased from Invitrogen (Carlsbad, Calif.). Monoclonal antibodies to IE1 (63-27) and ppUL44 (28-21) were generously provided by Bill Britt and were used as culture supernatants with goat anti-mouse secondary antibodies conjugated to FITC or Texas Red (Southern Biotechnology, Birmingham, Ala.).
# PML bodies are affected by the kinase. Nuclear aggresomes form in a dynamic microtubule dependent process that initiates with fusion of small aggregations located at or near PML bodies. To determine the effect of pUL97 on these structures, this and other proteins were expressed in COST cells and visualized PML bodies with an antibody to SP100, which is a marker of these domains. […] Their number was also unaffected by the expression of pp71, however it colocalized with these structures and is consistent with previous reports. […]
# GS strain of HHV-6A = assay: Efficacy against HHV-6A in HSB-2 cells with reduced serum; format: cell-based
# Protocol: The activity of MBV was evaluated against the GS strain of HHV-6A in HSB-2 cells with reduced serum to slow the growth of lymphocytes.
# HCMV UL97 kinase = biological target: T4, HCMV UL97 kinase (Human cytomegalovirus, UniProt P16788); assay: Surrogate assay: UL97 kinase dependent inhibition of pp65-GFP nuclear aggregation; format: cell-based
# T4 construct: expressed in transfected cells; host or cells: COS7 cells (transient co-transfection)
structure (smiles),measurement,setting,value
CC(C)Nc1nc2cc(Cl)c(Cl)cc2n1[C@H]1O[C@@H](CO)[C@H](O)[C@@H]1O [maribavir],Inhibition of HHV-6 replication,HHV-6,poor inhibitor
same,Effect on ability of U69 to inhibit pp65-GFP aggregation,[1],reduces the ability of UL97 and U69 to inhibit aggregation
same,Levels of hyperphosphorylated Rb,hyperphosphorylated Rb; HFF cells infected with UL97 deletion virus RCΔ97,relatively unaffected
same,Increase in levels of p53,hyperphosphorylated Rb; HFF cells infected with wt virus,unaffected
same,Increase of hyperphosphorylated Rb,"hyperphosphorylated Rb; HFF cells infected with wt virus AD169, 24 hours post infection",did not occur
same,Levels of hyperphosphorylated Rb,"hyperphosphorylated Rb; HFF cells infected with wt virus AD169, 72 hours after infection",significantly reduced
same,Hyperphosphorylated forms of Rb,"hyperphosphorylated Rb; infected cells, 24 and 72 hours, FIG. 4 legend",reduced
same,Effect on kinase inhibition of pp71 aggregation,UL97 kinase,unable to inhibit the aggregation of pp71 in the presence of MBV
same,Effect on pUL97 reduction of the number of PML bodies,pUL97,"neither the K355M mutant, or pUL97 in the presence of maribavir could affect their numbers"
same,EC50,"GS strain of HHV-6A; HSB2, GS strain of HHV-6A, HSB-2 cells, reduced serum, read-out: EC50 values under conditions of reduced serum",9 to 30 µM
same,EC50,"GS strain of HHV-6A; HSB2, HHV-6A in HSB-2 cells, 2% FBS, read-out: EC50",30 µM
same,EC50,"GS strain of HHV-6A; HSB2, HHV-6A in HSB-2 cells, 5% FBS, read-out: EC50",9 µM
same,EC50,"GS strain of HHV-6A; HSB2, HHV-6A in HSB-2 cells, 10% FBS, read-out: EC50",> 50 µM
same,Effect on ability of UL97 to inhibit pp65-GFP aggregation,"HCMV UL97 kinase; 15 μM MBV, FIG. 8, listed as MBV",reduces the ability of UL97 and U69 to inhibit aggregation
same,Effect on inhibition of pp65 aggregate formation by the kinase,HCMV UL97 kinase; COS7 cells co-expressing pp65-GFP and UL97,antagonized
